In ChEMBL document CHEMBL3217534, “Glyco-Phospho-Glycero Ether Lipids (GPGEL): synthesis and evaluation as small conductance Ca2+-activated K+ channel (SK3) inhibitors” (Medchemcomm, 2012):
≈ marks a conversion by molar mass, not a printed value. Calls of active or inactive are those of the source. The rule behind the calls is not given here.

Legend:
HEK-293T [1] = experiment: Effect on SK3 deficient HEK293T cell migration at 100 nM after 15 hrs by DAPI staining; type: functional, cell-based; conditions: Homo sapiens
[2] = biological target: Small conductance calcium-activated potassium channel protein 3 (Rattus norvegicus) (UniProt P70605); experiment: Inhibition of recombinant rat SK3 expressed in HEK293T cells assessed as inhibition of cell migration at 100 nM after 15 hrs by DAPI staining; type: cell-based; conditions: HEK-293T
Sequence of Small conductance calcium-activated potassium channel protein 3 (Rattus norvegicus) (P70605 whole entry): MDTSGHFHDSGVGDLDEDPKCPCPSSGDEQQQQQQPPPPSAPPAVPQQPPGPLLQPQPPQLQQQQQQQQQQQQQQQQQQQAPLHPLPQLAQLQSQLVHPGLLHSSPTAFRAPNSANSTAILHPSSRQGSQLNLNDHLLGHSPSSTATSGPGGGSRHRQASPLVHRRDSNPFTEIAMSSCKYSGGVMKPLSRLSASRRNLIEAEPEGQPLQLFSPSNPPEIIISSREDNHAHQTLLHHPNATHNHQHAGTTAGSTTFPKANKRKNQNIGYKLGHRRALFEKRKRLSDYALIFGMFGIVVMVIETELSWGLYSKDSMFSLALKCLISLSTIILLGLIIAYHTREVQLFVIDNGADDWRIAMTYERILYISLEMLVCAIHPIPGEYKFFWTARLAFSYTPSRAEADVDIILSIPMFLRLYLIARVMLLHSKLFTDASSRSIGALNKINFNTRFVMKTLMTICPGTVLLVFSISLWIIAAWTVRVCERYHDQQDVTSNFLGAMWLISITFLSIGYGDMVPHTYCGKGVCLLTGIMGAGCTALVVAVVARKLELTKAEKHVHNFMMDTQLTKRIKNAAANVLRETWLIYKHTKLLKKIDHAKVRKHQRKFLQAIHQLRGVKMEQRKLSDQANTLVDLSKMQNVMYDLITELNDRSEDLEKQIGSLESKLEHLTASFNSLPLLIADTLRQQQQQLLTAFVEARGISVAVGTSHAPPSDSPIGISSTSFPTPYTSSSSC

HEK-293T [3] = experiment: Cytotoxicity against HEK293T cells expressing rat SK3 assessed as cell viability at 10 uM after 48 hrs by MTT assay; type: cell-based; conditions: human
[4] = biological target: Small conductance calcium-activated potassium channel protein 3 (Rattus norvegicus) (UniProt P70605); experiment: Inhibition of recombinant rat SK3 expressed in HEK293T cells assessed as decrease in channel current amplitude at 0 mV holding potential at 10 uM measured for 3 mins by patch clamp assay relative to control; type: cell-based; conditions: HEK-293T
[5] = Solubility of the compound in water; type: physicochemical

Row | inhibition [2] | inhibition [4] | solubility [5] | Compound | Activity (HEK-293T [1]) | Activity (HEK-293T [3])
1 | 40% | 65.5% | – | CCCCCCCCCCCCCCCCOCC(COP(=O)(O)OC1O[C@H](CO[C@H]2O[C@H](CO)[C@H](O)[C@H](O)[C@H]2O)[C@@H](O)[C@H](O)[C@H]1O)OC.CCN(CC)CC (some centres not stated) | inactive | Non-toxic
2 | 40% | 73.2% | 9 µM (≈ 5.89 µg/mL) | CCCCCCCCCCCCCCCCOCC(CO[C@H]1O[C@H](CO)[C@@H](O[C@@H]2O[C@H](CO)[C@H](O)[C@H](O)[C@H]2O)[C@H](O)[C@H]1O)OC (some centres not stated) | inactive | Non-toxic
3 | 40% | 69.2% | 16 µM | CCCCCCCCCCCCCCCCOCC(COP(=O)(O)OC1O[C@H](CO)[C@@H](O[C@@H]2O[C@H](CO)[C@H](O)[C@H](O)[C@H]2O)[C@H](O)[C@H]1O)OC.CCN(CC)CC (some centres not stated) | inactive | Non-toxic
4 | 40% | 70.8% | – | CCCCCCCCCCCCCCCCOCC(COP(=O)(O)O[C@H]1O[C@H](CO)[C@@H](O[C@H]2O[C@H](CO)[C@@H](O)[C@H](O)[C@H]2O)[C@H](O)[C@H]1O)OC.CCN(CC)CC (some centres not stated) | inactive | Non-toxic
5 | 40% | 60% | – | CCCCCCCCCCCCCCCCOCC(COP(=O)(O)OC1O[C@H](CO)[C@@H](O[C@H]2O[C@H](CO)[C@@H](O)[C@H](O)[C@H]2O)[C@H](O)[C@H]1O)OC.CCN(CC)CC (some centres not stated) | inactive | Non-toxic
